Laboratory results as given in paper PMC7104723 (Cell Research, 2020).
Several values for one entry are separate records, joined by “and”; a condition that tells them apart may be missing. Equal values may be shown once.

How the values were obtained:
SARS-CoV-2 S protein = SARS-CoV-2 S protein (Severe acute respiratory syndrome coronavirus 2, UniProt P0DTC2); assay: cell-based; type: cell-based
SARS-CoV S protein = SARS-CoV S protein (Severe acute respiratory syndrome coronavirus, UniProt P59594); assay: cell-based; type: cell-based
MERS-CoV S protein = MERS-CoV S protein (Middle East respiratory syndrome-related coronavirus, UniProt K9N5Q8); assay: cell-based; type: cell-based
HCoV-OC43 S protein = HCoV-OC43 S protein (Human coronavirus OC43, UniProt P36334); assay: cell-based; type: cell-based
Chain of HCoV-OC43 S protein (P36334 14-1353 limits assumed): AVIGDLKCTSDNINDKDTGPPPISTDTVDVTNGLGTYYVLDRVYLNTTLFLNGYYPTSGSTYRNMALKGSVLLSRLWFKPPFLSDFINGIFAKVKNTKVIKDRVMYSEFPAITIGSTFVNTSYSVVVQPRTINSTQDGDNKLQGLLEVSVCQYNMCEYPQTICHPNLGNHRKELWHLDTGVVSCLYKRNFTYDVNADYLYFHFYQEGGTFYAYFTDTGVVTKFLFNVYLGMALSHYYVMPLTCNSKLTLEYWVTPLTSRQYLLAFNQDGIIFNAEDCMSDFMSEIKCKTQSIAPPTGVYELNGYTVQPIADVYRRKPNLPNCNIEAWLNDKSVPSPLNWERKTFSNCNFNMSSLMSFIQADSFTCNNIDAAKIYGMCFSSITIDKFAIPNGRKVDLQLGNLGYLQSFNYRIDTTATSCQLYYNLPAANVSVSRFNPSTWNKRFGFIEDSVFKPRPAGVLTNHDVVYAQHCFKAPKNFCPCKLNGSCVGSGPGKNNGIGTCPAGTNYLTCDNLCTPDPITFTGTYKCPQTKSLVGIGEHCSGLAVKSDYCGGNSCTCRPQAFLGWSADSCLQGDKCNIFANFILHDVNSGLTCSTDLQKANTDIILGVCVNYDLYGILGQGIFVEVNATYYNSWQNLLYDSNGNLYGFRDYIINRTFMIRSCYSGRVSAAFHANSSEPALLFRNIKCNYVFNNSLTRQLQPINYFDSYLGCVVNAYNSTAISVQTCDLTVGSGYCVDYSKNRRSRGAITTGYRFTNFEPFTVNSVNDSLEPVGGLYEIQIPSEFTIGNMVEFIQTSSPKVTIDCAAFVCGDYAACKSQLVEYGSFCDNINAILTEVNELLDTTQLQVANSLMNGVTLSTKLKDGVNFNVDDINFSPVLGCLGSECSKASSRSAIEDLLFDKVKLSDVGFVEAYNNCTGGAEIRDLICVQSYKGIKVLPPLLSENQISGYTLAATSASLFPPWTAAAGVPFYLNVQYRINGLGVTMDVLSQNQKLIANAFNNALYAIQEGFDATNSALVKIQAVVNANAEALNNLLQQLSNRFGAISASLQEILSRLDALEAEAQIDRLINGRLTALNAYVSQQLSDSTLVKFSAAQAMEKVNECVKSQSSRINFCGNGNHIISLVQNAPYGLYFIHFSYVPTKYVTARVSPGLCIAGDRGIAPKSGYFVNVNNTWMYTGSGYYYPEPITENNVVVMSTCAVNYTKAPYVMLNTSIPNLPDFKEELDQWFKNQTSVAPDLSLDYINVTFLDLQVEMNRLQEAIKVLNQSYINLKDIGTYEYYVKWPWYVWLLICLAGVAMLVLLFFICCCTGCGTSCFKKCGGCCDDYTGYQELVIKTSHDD

HCoV-229E S protein = HCoV-229E S protein (Human coronavirus 229E, UniProt P15423); assay: cell-based; type: cell-based
Chain of HCoV-229E S protein (P15423 16-1173 limits assumed): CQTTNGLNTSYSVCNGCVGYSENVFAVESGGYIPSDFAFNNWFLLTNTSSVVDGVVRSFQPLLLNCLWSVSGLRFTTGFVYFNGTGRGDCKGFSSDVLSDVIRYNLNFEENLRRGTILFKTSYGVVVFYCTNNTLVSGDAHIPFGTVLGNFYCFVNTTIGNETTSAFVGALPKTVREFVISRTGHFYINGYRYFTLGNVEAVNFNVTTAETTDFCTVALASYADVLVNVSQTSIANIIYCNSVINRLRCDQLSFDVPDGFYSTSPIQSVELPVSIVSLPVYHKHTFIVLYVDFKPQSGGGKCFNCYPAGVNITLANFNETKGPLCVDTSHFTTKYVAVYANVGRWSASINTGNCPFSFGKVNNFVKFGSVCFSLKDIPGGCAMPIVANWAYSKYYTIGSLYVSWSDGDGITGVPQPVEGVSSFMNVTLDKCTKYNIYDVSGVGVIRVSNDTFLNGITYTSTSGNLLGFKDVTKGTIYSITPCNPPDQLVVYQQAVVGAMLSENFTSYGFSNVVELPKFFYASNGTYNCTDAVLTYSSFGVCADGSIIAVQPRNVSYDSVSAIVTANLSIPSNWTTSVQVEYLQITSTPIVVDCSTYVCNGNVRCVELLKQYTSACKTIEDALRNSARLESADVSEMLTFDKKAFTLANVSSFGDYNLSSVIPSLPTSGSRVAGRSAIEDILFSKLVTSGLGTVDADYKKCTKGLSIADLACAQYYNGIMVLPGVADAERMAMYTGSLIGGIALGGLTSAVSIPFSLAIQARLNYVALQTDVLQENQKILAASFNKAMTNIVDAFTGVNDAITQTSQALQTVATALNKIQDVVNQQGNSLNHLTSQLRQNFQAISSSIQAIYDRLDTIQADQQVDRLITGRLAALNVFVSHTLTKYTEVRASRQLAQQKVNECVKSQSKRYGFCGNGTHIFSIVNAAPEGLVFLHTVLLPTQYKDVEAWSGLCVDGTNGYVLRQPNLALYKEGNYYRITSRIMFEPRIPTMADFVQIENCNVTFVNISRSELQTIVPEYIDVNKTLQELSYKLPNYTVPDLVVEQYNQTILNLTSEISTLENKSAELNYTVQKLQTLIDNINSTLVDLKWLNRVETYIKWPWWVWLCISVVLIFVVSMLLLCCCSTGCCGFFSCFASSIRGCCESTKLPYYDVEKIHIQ

HCoV-NL63 S protein = HCoV-NL63 S protein (Human coronavirus NL63, UniProt Q6Q1S2); assay: cell-based; type: cell-based
Chain of HCoV-NL63 S protein (Q6Q1S2 19-1356 limits assumed): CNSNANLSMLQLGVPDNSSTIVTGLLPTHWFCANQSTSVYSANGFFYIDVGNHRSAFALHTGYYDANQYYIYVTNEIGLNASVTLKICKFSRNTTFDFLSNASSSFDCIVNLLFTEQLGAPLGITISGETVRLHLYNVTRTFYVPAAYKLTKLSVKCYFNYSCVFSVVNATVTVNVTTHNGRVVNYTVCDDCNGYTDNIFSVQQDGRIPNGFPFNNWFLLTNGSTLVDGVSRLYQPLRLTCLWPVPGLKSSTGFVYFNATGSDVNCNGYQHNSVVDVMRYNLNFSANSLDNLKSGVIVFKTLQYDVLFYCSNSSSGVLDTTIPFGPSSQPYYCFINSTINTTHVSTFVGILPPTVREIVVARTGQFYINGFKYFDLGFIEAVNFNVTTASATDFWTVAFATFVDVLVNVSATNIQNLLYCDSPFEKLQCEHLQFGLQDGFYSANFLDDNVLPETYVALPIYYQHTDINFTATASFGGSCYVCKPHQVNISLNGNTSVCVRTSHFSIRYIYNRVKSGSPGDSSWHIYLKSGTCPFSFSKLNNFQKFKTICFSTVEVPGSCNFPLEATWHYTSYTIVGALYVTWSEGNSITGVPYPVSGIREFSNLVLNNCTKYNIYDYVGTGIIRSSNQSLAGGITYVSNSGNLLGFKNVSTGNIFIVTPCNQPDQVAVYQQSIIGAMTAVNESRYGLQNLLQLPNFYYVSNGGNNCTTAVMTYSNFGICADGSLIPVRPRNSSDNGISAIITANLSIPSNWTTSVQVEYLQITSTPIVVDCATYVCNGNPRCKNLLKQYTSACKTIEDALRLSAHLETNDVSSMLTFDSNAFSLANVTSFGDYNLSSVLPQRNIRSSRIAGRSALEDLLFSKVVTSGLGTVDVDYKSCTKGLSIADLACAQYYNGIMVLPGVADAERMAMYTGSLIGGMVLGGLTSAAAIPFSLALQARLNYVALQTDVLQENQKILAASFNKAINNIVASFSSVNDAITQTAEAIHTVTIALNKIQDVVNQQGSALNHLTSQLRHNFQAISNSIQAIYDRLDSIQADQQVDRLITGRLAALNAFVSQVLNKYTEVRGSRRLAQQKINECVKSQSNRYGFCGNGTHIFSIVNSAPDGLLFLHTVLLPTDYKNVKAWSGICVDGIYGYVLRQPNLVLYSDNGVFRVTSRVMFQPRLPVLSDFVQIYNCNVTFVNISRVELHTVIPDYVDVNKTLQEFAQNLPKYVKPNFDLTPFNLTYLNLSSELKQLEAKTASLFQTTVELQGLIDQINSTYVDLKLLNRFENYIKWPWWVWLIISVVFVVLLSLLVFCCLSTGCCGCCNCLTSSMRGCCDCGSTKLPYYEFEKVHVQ

SARS-CoV-2 PsV = conditions: PsV, 72 h
SARS-CoV PsV = conditions: 72 h
MERS-CoV PsV = conditions: 72 h
HCoV-OC43 PsV = conditions: 72 h
HCoV-229E PsV = conditions: 72 h
HCoV-NL63 PsV = conditions: 72 h
WIV1 PsV = conditions: 72 h
Rs3367 PsV = conditions: 72 h
live SARS-CoV-2 = conditions: live, 72 h
live MERS-CoV = conditions: 72 h
live HCoV-OC43 = conditions: 1 h
live HCoV-229E = conditions: 1 h
live HCoV-NL63 = conditions: 1 h
WIV1 S protein = type: cell-based, SL-CoV WIV1
Rs3367 S protein = type: cell-based, SL-CoV Rs3367
SHC014 S protein = type: cell-based, SL-CoV RsSHC014

Q: What does the source list for `CC[C@H](C)[C@H](NC(=O)[C@H](C)NC(=O)[C@H](CCC(=O)O)NC(=O)[C@H](CCC(=O)O)NC(=O)[C@H](CC(C)C)NC(=O)[C@H](CCCCN)NC(=O)[C@H](CCCCN)NC(=O)[C@H](CCSC)NC(=O)[C@H](CCC(=O)O)NC(=O)[C@H](Cc1ccc(O)cc1)NC(=O)[C@H](CCC(=O)O)NC(=O)[C@H](CC(C)C)NC(=O)[C@H](CC(=O)O)NC(=O)[C@H](CC(C)C)NC(=O)[C@H](Cc1ccccc1)NC(=O)[C@@H](NC(=O)[C@@H](NC(=O)[C@H](CC(N)=O)NC(=O)[C@@H](NC(=O)[C@H](CCC(N)=O)NC(=O)[C@H](CC(=O)O)NC(=O)[C@H](CC(C)C)NC(=O)[C@@H](N)CO)[C@@H](C)CC)C(C)C)[C@@H](C)O)C(=O)N[C@@H](CCCCN)C(=O)N[C@@H](CCCCN)C(=O)N[C@@H](CC(C)C)C(=O)N[C@@H](CCC(=O)O)C(=O)N[C@@H](CCC(=O)O)C(=O)N[C@@H](CO)C(=O)N[C@@H](Cc1ccc(O)cc1)C(=O)N[C@H](C(=O)N[C@@H](CC(=O)O)C(=O)N[C@@H](CC(C)C)C(=O)N[C@@H](CCCCN)C(=O)N[C@@H](CCC(=O)O)C(=O)N[C@@H](CC(C)C)C(=O)O)[C@@H](C)CC` [EK1]?
A: IC50 (SARS-CoV-2 S protein; IC50, SARS-CoV-2 S-mediated cell–cell fusion): 287 nM and 315 nM; IC50 (SARS-CoV S protein): 409 nM; IC50 (MERS-CoV S protein): 239 nM; IC50 (HCoV-OC43 S protein): 788 nM; IC50 (HCoV-229E S protein): 207 nM; IC50 (HCoV-NL63 S protein): 751 nM; IC50 (SARS-CoV-2 PsV): 2380 nM; IC50 (SARS-CoV PsV): 3240 nM; IC50 (MERS-CoV PsV): 632 nM; IC50 (HCoV-OC43 PsV): 1400 nM; IC50 (HCoV-229E PsV): 3960 nM; IC50 (HCoV-NL63 PsV): 7670 nM; IC50 (WIV1 PsV): 5420 nM; IC50 (Rs3367 PsV): 6010 nM; IC50 (live SARS-CoV-2): 2470 nM; IC50 (live MERS-CoV): 802 nM; IC50 (live HCoV-OC43): 1550 nM; IC50 (live HCoV-229E): 4380 nM; IC50 (live HCoV-NL63): 3690 nM

Q: `CC[C@H](C)[C@H](NC(=O)[C@H](C)NC(=O)[C@H](CCC(=O)O)NC(=O)[C@H](CCC(=O)O)NC(=O)[C@H](CC(C)C)NC(=O)[C@H](CCCCN)NC(=O)[C@H](CCCCN)NC(=O)[C@H](CCSC)NC(=O)[C@H](CCC(=O)O)NC(=O)[C@H](Cc1ccc(O)cc1)NC(=O)[C@H](CCC(=O)O)NC(=O)[C@H](CC(C)C)NC(=O)[C@H](CC(=O)O)NC(=O)[C@H](CC(C)C)NC(=O)[C@H](Cc1ccccc1)NC(=O)[C@@H](NC(=O)[C@@H](NC(=O)[C@H](CC(N)=O)NC(=O)[C@@H](NC(=O)[C@H](CCC(N)=O)NC(=O)[C@H](CC(=O)O)NC(=O)[C@H](CC(C)C)NC(=O)[C@@H](N)CO)[C@@H](C)CC)C(C)C)[C@@H](C)O)C(=O)N[C@@H](CCCCN)C(=O)N[C@@H](CCCCN)C(=O)N[C@@H](CC(C)C)C(=O)N[C@@H](CCC(=O)O)C(=O)N[C@@H](CCC(=O)O)C(=O)N[C@@H](CO)C(=O)N[C@@H](Cc1ccc(O)cc1)C(=O)N[C@H](C(=O)N[C@@H](CC(=O)O)C(=O)N[C@@H](CC(C)C)C(=O)N[C@@H](CCCCN)C(=O)N[C@@H](CCC(=O)O)C(=O)N[C@@H](CC(C)C)C(=O)NCC(=O)N[C@@H](CO)C(=O)NCC(=O)NCCOCCOCCOCCOCCC(=O)N[C@@H](CSCC(=O)O[C@H]1CC[C@@]2(C)C(=CC[C@H]3[C@@H]4CC[C@H]([C@H](C)CCCC(C)C)[C@@]4(C)CC[C@@H]32)C1)C(N)=O)[C@@H](C)CC` [EK1C3] was tested. Which “Fold more potent than EK1C1, SARS-CoV-2 S-mediated cell–cell fusion” value (SARS-CoV-2 S protein) did it give?
A: 4 fold

Q: And the IC50 (SARS-CoV-2 PsV)?
A: 86.4 nM

Q: Which results are given for “LKVLLYEEFKLLESLIMEILEYQKDSDIKENAEDTK [EK1-scrambled, reference compound]”?
A: Inhibitory activity on SARS-CoV-2 S-mediated cell–cell fusion (SARS-CoV-2 S protein): no inhibitory activity; Inhibitory activity on SARS-CoV S-mediated cell–cell fusion (SARS-CoV S protein): no inhibitory activity; Inhibitory activity on MERS-CoV S-mediated cell–cell fusion (MERS-CoV S protein): no inhibitory activity; Inhibitory activity on HCoV-OC43 S-mediated cell–cell fusion (HCoV-OC43 S protein): no inhibitory activity; Inhibitory activity on HCoV-229E S-mediated cell–cell fusion (HCoV-229E S protein): no inhibitory activity; Inhibitory activity on HCoV-NL63 S-mediated cell–cell fusion (HCoV-NL63 S protein): no inhibitory activity; Inhibitory activity on WIV1 S-mediated cell–cell fusion (WIV1 S protein): no inhibitory activity; Inhibitory activity on Rs3367 S-mediated cell–cell fusion (Rs3367 S protein): no inhibitory activity; Inhibitory activity on SHC014 S-mediated cell–cell fusion (SHC014 S protein): no inhibitory activity
